Values of other authors as cited in patent publication US9724355B2, “Fulvestrant compositions and methods of use” (SHIMODA BIOTECH (PTY) LTD, priority 2010, dated 2017).

Settings: cited from earlier work

**Q.** For `CC(O)COC[C@H]1O[C@@H]2O[C@H]3[C@H](O)[C@@H](O)[C@@H](O[C@H]4[C@H](O)[C@@H](O)[C@@H](O[C@H]5[C@H](O)[C@@H](O)[C@@H](O[C@H]6[C@H](O)[C@@H](O)[C@@H](O[C@H]7[C@H](O)[C@@H](O)[C@@H](O[C@H]8[C@H](O)[C@@H](O)[C@@H](O[C@H]1[C@H](O)[C@H]2O)O[C@@H]8COCC(C)O)O[C@@H]7COCC(C)O)O[C@@H]6COCC(C)O)O[C@@H]5COCC(C)O)O[C@@H]4COCC(C)O)O[C@@H]3COCC(C)O` (stereo partly drawn) [Hydroxypropyl beta-cyclodextrin], which “Water Solubility (25° C.)” value is on record?
**A.** >750 mg/mL

**Q.** Which “Water Solubility (25° C.)” value does the source give for Sulfobutylether beta-cyclodextrin here?
**A.** >500 mg/mL

**Q.** Which “Water Solubility (25° C.)” value does the source give for Methyl beta-cyclodextrin here?
**A.** >750 mg/mL
